We go through 2 compounds from patent US20110183911A1, “METHOD FOR IMPROVING NEUROTRANSMISSION FAILURE USING A NOVEL AGENT” (JURIDICAL FOUNDATION THE CHEMO-SERO-THERAPEUTIC RESEARCH …, priority 2002, published 2011).

Read-outs that look alike come from different tables or passages of the source.

Data set [1] concerns cell culture. The experiment in a line: Toxicity when added to cell culture.
Data set [2] relates to cell culture.
For another data set, the system named is NG108-15 cells. The experiment in a line: Activity to accelerate synaptic formation: differentiation of NG108-15 cells, anti-Rab3a immunostaining. It counts as cell-based, rat. Particulars: Selenoprotein P 4.36 μg/mL. The procedure: In order to study the effect of Selenoprotein P on synaptic formation, differentiation to neurons was examined using NG108-15 cells (hybridoma of rat neuroblastoma and rat glioma: ATCC NO. HB-12317) which has widely been used for study of synaptic formation and a receptor. NK108-15 cells were seeded to DME supplemented with 10% fetal calf serum and HAT (hypoxanthine, aminopterin and thymidine) in 35 mm polyornithine-coated dish and incubated at 37° C., 10% CO2. After 1 to 2 days, the culture medium was replaced with DMEM (serum free medium) supplemented with 1% fetal calf serum and HT (hypoxanthine and thymidine) and 0.1 mM dibutyl cyclic AMP (abcAMP) was added to induce differentiation while Selenoprotein P at 4.36 μg/mL was added to the medium followed by culture for 3 days. After culture, the dish attached with a sheet of cells was rinsed twice with phosphate buffered saline (hereinafter referred to as PBS) to wash the culture. Cellular proteins were then fixed with paraformaldehyde adjusted to 4% with PBS. After fixation at room temperature for 30 minutes, the dish was rinsed twice with PBS to remove a fixing solution. […]
The nerve cell bodies had also a number of short neurites. […] A proportion of synapses specifically dyed with the anti-Rab3a antibody was then calculated with Mac SCOPE (manufactured by Mitani Corporation), a software for image analysis for Mackintosh, to measure immunopositive spots. […] Therefore, those spots with R value alone could be extracted with the analysis software and measured. In addition, the number of varicosity with no immunological reaction was measured manually and then a proportion (%) of the number of immunopositive varicosity among a total number of varicosity in the photographed picture was calculated.

In the next data set the test system is acetylcholine receptors. The experiment in a line: Pilocarpine-induced convulsion in mice (function of acetylcholine receptor). Format: in vivo. To be noted: ICR male mice. The procedure:
In order to study the effect of Selenoprotein P on cholinergic neurons, to mice was administered pilocarpine that agonistically acted on acetylcholine receptors present on junctions (synaptic terminal) between neurons and between neurons and muscle to thereby induce convulsion. Pilocarpine, having a parasympathetic nerve-stimulating activity, will induce clonic convulsion in the limbs leading to systemic convulsion when administered to mice.
Twelve ICR male mice (weighing 30 to 43 g; purchased from CLEA Japan, Inc.) of nine weeks old were divided into two groups (6 animals/group) and tested. One hour before administration of pilocarpine, Selenoprotein P prepared at a concentration of 2.5 mg/mL with saline was administered to mice at 0.5 mg of Selenoprotein P per animal (200 μL) as a test group. For a control group, an equivalent amount of saline was administered intraperitoneally. Pilocarpine (pilocarpine hydrochloride, Wako Pure Chemical Industries, Ltd.) was prepared at 100 mg/mL with saline and administered to mice intraperitoneally at 270 to 320 mg/kg. Immediately after administration, mice were photographed with a digital video for record of experiment. Observation was made for 60 minutes after administration of pilocarpine. Time required for developing systemic convulsion and survival of the animals were taken for criteria of assessment. […]

The nature of data set [3]: Cell death-inhibitory activity of purified fractions. Format: cell-based. Particulars: fractions purified from plasma (Preparation 1).
Another data set concerns cultured primary neurons. Put plainly: Activation of primary neurons by NO (SNAP): mitochondrial dehydrogenase activity, Cell Counting kit-8. To be noted: mouse primary neurons, 15 hours, fragment 0.26 μM as selenium (FIG. 3). It counts as cell-based. An excerpt:
In order to study the effect of Selenoprotein P on the neurotic activity of NO as synaptic neurotransmitter, cultured primary neurons were subject to the action of an NO generator, S-nitroso-N-acetyl-DL-penicillamine (SNAP, manufactured by DOJINDO LABORATORIES), in the presence of Selenoprotein P to determine as to whether a respiratory capacity of neuronal mitochondria is altered in the presence of Selenoprotein P. For determination of a respiratory capacity of mitochondria, a kit was used that readily measured the dehydrogenase activity in the mitochondrial inner membrane (Cell Counting kit-8, manufactured by DOJINDO LABORATORIES).
Fetus was removed from C57BL/6 mouse of 14-day pregnancy (purchased from Charles River Japan, Inc.). The cerebral cortex from the fetus was treated and dispersed with 0.25% trypsinized EDAT and then cultured in Neurobasal Medium (Gibco BRL.) supplemented with B27 supplement (Gibco ERL.) in 5% CO2 incubator at 37° C. for culture of primary neurons. […] After developing reaction, each 100 μL of the culture supernatant was transferred to a 96-well microtiter plate and then absorption was measured at a wave-length of 450 nm with a microtiter plate reader with a reference wave-length of 650 nm.

As to `N[C@@H](C[Se][Se]C[C@H](N)C(=O)O)C(=O)O` [selenocystine], the Toxicity entry in the data set with cell culture [1] is on record as “considerably high toxicity”.
In the case of “Selenoprotein P: selenocysteine-containing plasma protein (SEQ ID NO: 1), full-length 64 kDa, purified from human plasma (Preparation 2)”, in the data set on cell culture [2], the Toxicity entry is on record as “no such a high toxicity could be observed”. For the same compound, in the data set on NG108-15 cells (3 days), the “Morphology of differentiated cells (neurites, varicosity)” value is recorded as “complexity in development of neurites as well as much particulate varicosity”. Besides, the “Rab3a-dyed particles on neurites (FIG. 1)” value in the data set on NG108-15 cells (3 days, anti-Rab3a monoclonal antibody) is “a large number of Rab3a-dyed knotty particles on neurites”. Moreover, the “Proportion of Rab3a-immunopositive cells ± SD” value in the data set on NG108-15 cells (differentiation with dibutyl cyclic AMP, culture for 3 days, immunopositive varicosity among total varicosity) is reported as 66.0 ± 2.75%. The “Time for developing systemic convulsion compared to control group” value in the data set on acetylcholine receptors (0.5 mg Selenoprotein P per animal 1 hour before pilocarpine) is reported as “significantly shortened”. For the same compound, the “Mortality after challenge with pilocarpine compared to control group (FIG. 2)” value with acetylcholine receptors (0.5 mg Selenoprotein P per animal, observation 60 minutes) is reported as “apparently decreased mortality”. Moreover, the “Cell death-inhibitory activity per proteins” value in data set [3] is reported as “much lower than that of the fragment thereof”. Also, in the data set with cultured primary neurons (SNAP 50 μM, Selenoprotein P or sodium selenite 1 μM), the “Mitochondrial respiratory capacity of the neurons in the presence of NO generator SNAP” value is “significantly increased”. Moreover, the “Activity of dehydrogenase of the mitochondrial inner membrane (mitochondrial respiratory capacity), without SNAP” value in the data set on cultured primary neurons (no SNAP, Selenoprotein P 1 μM) was “tended to show an increased activity”.
